Assay results from US12466846B2, “Siloxane derivatives of amino acids having surface-active properties” (AdvanSix Resins & Chemicals LLC, priority 2022, dated 2025).

Experiment: Critical micelle concentration and minimum surface tension from surface tension versus concentration in water, Wilhelmy plate method
Format: physicochemical
Details: for plateau value of minimum surface tension that can be reached: in water, Wilhelmy plate, 23° C.; for interfacial / surfactant activity (in words): judged from the plateau minimum surface tension and CMC in water
From the text: These properties may be measured and described by various methods. One method by which surfactants may be described is by the molecule's critical micelle concentration (CMC). CMC may be defined as the concentration of a surfactant at which micelles form, and above which all additional surfactant is incorporated into micelles.
As surfactant concentration increases, surface tension decreases. Once the surface is completely overlaid with surfactant molecules, micelles begin to form. This point represents the CMC, as well as the minimum surface tension. Further addition of surfactant will not further affect the surface tension. CMC may therefore be measured by observing the change in surface tension as a function of surfactant concentration. One such method for measuring this value is the Wilhemy plate method. A Wilhelmy plate is usually a thin iridium-platinum plate attached to a balance by a wire and placed perpendicularly to the air-liquid interface. The balance is used to measure the force exerted on the plate by wetting. This value is then used to calculate the surface tension (γ) according to Equation 1: γ=F/l cos θ: Equation 1 wherein I is equal to the wetted perimeter (2w+2d, in which w and d are the plate thickness and width, respectively) and cos θ, the contact angle between the liquid and the plate, is assumed to be […] in the absence of an extant literature value.
Nuclear magnetic resonance (NMR) spectroscopy was performed on a Bruker 500 MHz spectrometer. The critical micelle concentration (CMC) was determined by the Wilhelmy plate method at 23° C. with a tensiometer (DCAT 11, DataPhysics Instruments GmbH) equipped with a Pt—Ir plate. Dynamic surface tension was determined with a bubble pressure tensiometer (Krüss BP100, Krüss GmbH), at 23° C. Contact angle was determined with the optical contact angle goniometer (OCA 15 Pro, DataPhysics GmbH) equipped with a digital camera.

Structure (SMILES) | plateau value of minimum surface tension that can be reached | interfacial / surfactant activity (in words)
COCCOCC[N+](C)(C)CCCCCC(=O)NCCC[Si](O[Si](C)(C)C)(O[Si](C)(C)C)O[Si](C)(C)C [Surfactant 5, 6-((3-(1,1,1,5,5,5-hexamethyl-3-((trimethylsilyl)oxy)trisiloxan-3-yl)propyl)amino)-N-(2-(2-methoxyethoxy)ethyl)-N,N-dimethyl-6-oxohexan-1-aminium bromide] | about 20.40 mN/m | outstanding interfacial activity
C#CC[N+](C)(C)CCCCCC(=O)NCCC[Si](O[Si](C)(C)C)(O[Si](C)(C)C)O[Si](C)(C)C [Surfactant 4, 6-((3-(1,1,1,5,5,5-hexamethyl-3-((trimethylsilyl)oxy)trisiloxan-3-yl)propyl)amino)-N,N-dimethyl-6-oxo-N-(prop-2-yn-1-yl)hexan-1-aminium bromide] | about 20.54 mN/m | outstanding interfacial activity
C[N+](C)(CCCO)CCCCCC(=O)NCCC[Si](O[Si](C)(C)C)(O[Si](C)(C)C)O[Si](C)(C)C [Surfactant 7, 6-((3-(1,1,1,5,5,5-hexamethyl-3-((trimethylsilyl)oxy)trisiloxan-3-yl)propyl)amino)-N-(3-hydroxypropyl)-N,N-dimethyl-6-oxohexan-1-aminium iodide] | about 20.61 mN/m | outstanding interfacial activity
C[N+](C)(CCO)CCCCCC(=O)NCCC[Si](O[Si](C)(C)C)(O[Si](C)(C)C)O[Si](C)(C)C [Surfactant 8, 6-((3-(1,1,1,5,5,5-hexamethyl-3-((trimethylsilyl)oxy)trisiloxan-3-yl)propyl)amino)-N-(2-hydroxyethyl)-N,N-dimethyl-6-oxohexan-1-aminium iodide] | about 20.41 mN/m | outstanding interfacial activity
CCOP(=O)(CCC[N+](C)(C)CCCCCC(=O)NCCC[Si](O[Si](C)(C)C)(O[Si](C)(C)C)O[Si](C)(C)C)OCC [Surfactant 6, N-(3-(diethoxyphosphoryl)propyl)-6-((3-(1,1,1,5,5,5-hexamethyl-3-((trimethylsilyl)oxy)trisiloxan-3-yl)propyl)amino)-N,N-dimethyl-6-oxohexan-1-aminium bromide] | about 20.48 mN/m | outstanding interfacial activity
C[N+](C)(CCCCCC(=O)NCCC[Si](O[Si](C)(C)C)(O[Si](C)(C)C)O[Si](C)(C)C)CC(=O)O [Surfactant 9b, N-(carboxymethyl)-6-((3-(1,1,1,5,5,5-hexamethyl-3-((trimethylsilyl)oxy)trisiloxan-3-yl)propyl)amino)-N,N-dimethyl-6-oxohexan-1-aminium bromide] | about 29.16 mN/m | excellent activity
CCOC(=O)C[N+](C)(C)CCCCCC(=O)NCCC[Si](O[Si](C)(C)C)(O[Si](C)(C)C)O[Si](C)(C)C [Surfactant 2, N-(2-ethoxy-2-oxoethyl)-6-((3-(1,1,1,5,5,5-hexamethyl-3-((trimethylsilyl)oxy)trisiloxan-3-yl)propyl)amino)-N,N-dimethyl-6-oxohexan-1-aminium bromide] | around 20.36 mN/m | outstanding interfacial activity
C[N+](C)(CCCCCC(=O)NCCC[Si](O[Si](C)(C)C)(O[Si](C)(C)C)O[Si](C)(C)C)CCC[N+](C)(C)CCCCCC(=O)NCCC[Si](O[Si](C)(C)C)(O[Si](C)(C)C)O[Si](C)(C)C [Surfactant 10, N^1,N^3-bis(6-((3-(1,1,1,5,5,5-hexamethyl-3-((trimethylsilyl)oxy)trisiloxan-3-yl)propyl)amino)-6-oxohexyl)-N^1,N^1,N^3,N^3-tetramethylpropane-1,3-diaminium dibromide] | about 22.12 mN/m | interfacial activity
C=CC[N+](C)(C)CCCCCC(=O)NCCC[Si](O[Si](C)(C)C)(O[Si](C)(C)C)O[Si](C)(C)C [Surfactant 3, N-allyl-6-((3-(1,1,1,5,5,5-hexamethyl-3-((trimethylsilyl)oxy)trisiloxan-3-yl)propyl)amino)-N,N-dimethyl-6-oxohexan-1-aminium iodide] | about 20.67 mN/m | outstanding interfacial activity
C[N+](C)(CCCCCC(=O)NCCC[Si](O[Si](C)(C)C)(O[Si](C)(C)C)O[Si](C)(C)C)Cc1ccccc1 [Surfactant 1, N-benzyl-6-((3-(1,1,1,5,5,5-hexamethyl-3-((trimethylsilyl)oxy)trisiloxan-3-yl)propyl)amino)-N,N-dimethyl-6-oxohexan-1-aminium bromide] | around 20.67 mN/m | outstanding interfacial activity
C[N+](C)(CCCCCC(=O)O)CCCCCC(=O)NCCC[Si](O[Si](C)(C)C)(O[Si](C)(C)C)O[Si](C)(C)C [Surfactant 9a, N-(5-carboxypentyl)-6-((3-(1,1,1,5,5,5-hexamethyl-3-((trimethylsilyl)oxy)trisiloxan-3-yl)propyl)amino)-N,N-dimethyl-6-oxohexan-1-aminium bromide] | about 20.52 mN/m | 
